According to patent US8088401B2, “Composite material comprising a porous semiconductor impregnated with an organic substance” (Psimedica Limited, priority 2003, dated 2012):
Structures can show the parent of a compound that is named as a salt.

Columns and labels:
[1] = Gravimetric loading of porous silicon p+ membrane with beneficial organic substance; format: physicochemical; conditions: for pore volume available occupied by the drug, given as value/drug density / w/w loading (weight gain after drug loading and washing): mesoporous p+ silicon membrane, porosity 63%; for w/w loading (weight gain after drug loading and washing): melt, heated solution or rotary evaporation loading; for maximum w/w loading capacity: 63% porosity silicon matrix, from the density; for pore volume available occupied by the drug: liquid applied directly, 70° C. for 20 minutes
Procedure: The porous membranes were prepared and loaded with beneficial substance according to the following general method:—
A 3 inch diameter p+ wafer (5-15 milli ohm cm) was made mesoporous in a 50:50 by volume mixture of 40 wt % HF and ethanol by anodisation at 35 mA/cm^2 for 90 minutes. […] The membrane was then broken into flakes of weight in the range 10-60 mg for gravimetric and EDX studies of beneficial substance incorporation.
Loading was performed on two similar porous silicon (p+) membranes.
The pore volume available in the porous silicon membrane that can be occupied by the drug is calculated as follows: […]

[2] = aqueous environment; cited from earlier work
[3] = Mortality and survival of tumour-bearing nude mice in the chlorambucil study; format: in vivo; conditions: for mortality rate: without porous silicon
Procedure: The following protocol was adopted:— • 1. Culture of human cells and implantation of the tumour cells as solid tumours in nude mice: The carcinoma cell-line was cultured in RPMI and Ham's F-12 media respectively with 10% fetal calf serum in a CO2 incubator and subcultured every two to three days until growing to a number enough for implantation in animals. The cells were then implanted as solid tumors in nude mice]. The cells were collected in HBSS (balanced salt solution). One hundred microliters of cell suspension in HBSS (5×10^6 cells) was injected subcutaneously into right gluteal region of nude mice (female, 6 to 9 week old nude mice with average body weight of 25 g, housed in pathogen-free conditions) using a 25-gauge needle. • 2. Animals groups: Animals were randomly grouped into control 1 (injected with peanut oil), control 2 (injected with porous silicon without drug), free chlorambucil (drug injected without porous silicon directly into tumour or injected via intraperitoneal route) and chlorambucil impregnated porous silicon groups. Each group included 16 to 20 animals. • 3. Injection of chlorambucil impregnated porous silicon in transplanted tumours: On day 14 after implantation of tumours (diameter of the tumour about 1 cm), the chlorambucil impregnated formulation was applied to the centre of the tumours. • 4. Tumour volumetrics: The sizes of implanted tumours in nude mice was estimated every 3 days. The largest and smallest diameters were measured by a vernier caliper and tumour volumes estimated according the formula: V=1/2 ab^2, where a and b are largest and smallest tumour diameters respectively, and V is the tumour volume in cm^3.
The effects of intra-tumoural administered chlorambucil loaded porous silicon on the growth of the tumour was studied and compared with control and systemic therapy groups. The body weight of the animals was estimated by subtracting the tumour volume (cm3) from the total body weight (g) every 3 days. The survival time of each experimental animal was recorded.

[4] = HPLC analysis of drug extracted after incorporation into porous silicon; format: physicochemical
Procedure: Following incorporation into the membrane, chlorambucil was extracted and subjected to HPLC analysis. A known amount of the incorporated Chlorambucil/porous silicon (typically 10-15 mg, dependent on the level of incorporation) was placed into a volumetric flask and made up to a volume with 100 ml of ethanol, shaken and sonicated for 30 minutes at 30° C. From this stock solution 25 ml were transferred by pipette to a 100 ml volumetric flask to give the sample solution. Prior to analysis by HPLC the sample was filter through a 0.45 micron filter.
The chromatographic conditions used for this analysis were:—

[5] = 55% porous silicon, thin oxidised layers; cited from earlier work

Compound	pore volume available occupied by the drug, given as value/drug density [1]	w/w loading (weight gain after drug loading and washing) [1] [% w/w]	further results
CN(C)CCC=C1c2ccccc2CCc2ccccc21 [Amitriptyline HCl]	74.07 /drug density %	35.07	
CS(=O)(=O)OCCCCOS(C)(=O)=O [Busulfan]	78.53 /drug density %	37.54	
O=C(O)CCCc1ccc(N(CCCl)CCCl)cc1 [Chlorambucil]	88.40 /drug density %	39.19	apparent activation energy for thermal degradation (Ea) [2]: 24.4 kcal/mol; mortality rate ([3]; 720 ug): 50%; mortality rate ([3]; 1500 ug (2×LD50), intratumour): 90%; LD50 ([3]; nude mice, dose per animal): 720 µg; degradation after incorporation into and release from porous silicon (HPLC) [4]: without significant degradation
O=P1(N(CCCl)CCCl)NCCCO1 (centres unmarked) [Cyclophosohamide]	104 /drug density %	44.4	
CCCCCCCCCCCC(=O)O [Lauric Acid]	55.62 /drug density %	42.57	
CC1=CC(=O)c2c(O)cccc2C1=O [Plumbagin]	98.50 /drug density %	34.68	
albumin			volume percentage adsorbed [5]: 10.7%

Further lines, with some results ahead:

pore volume available occupied by the drug, given as value/drug density [1]	w/w loading (weight gain after drug loading and washing) [1] [% w/w]	Compound	further results
64 /drug density %	32.93	c1ccc([C@H]2CN3CCSC3=N2)cc1 [Levamisole HCl]	
	19.81	CC(=O)O[C@]1(C(C)=O)CC[C@H]2[C@@H]3C[C@H](C)C4=CC(=O)CC[C@]4(C)[C@H]3CC[C@@]21C [Medroxyprogesteron Acetate]	
	16.71	CC(=O)O[C@H]1C(=O)[C@@]2(C)[C@H]([C@H](OC(=O)c3ccccc3)[C@]3(O)C[C@H](OC(=O)[C@H](O)[C@@H](NC(=O)c4ccccc4)c4ccccc4)C(C)=C1C3(C)C)[C@]1(OC(C)=O)CO[C@@H]1C[C@@H]2O [Paclitaxel]	degradation after incorporation into and release from porous silicon (HPLC) [4]: without significant degradation
	35.33	CCN(CC)CCOC(=O)c1ccc(N)cc1 [Procaine]	loading w/v ([1]; EtOH:dH2O 1:1 solution, 110° C., 25 minutes): 71.38 % w/v
	40.67	CC(C)Cc1ccc(C(C)C(=O)O)cc1 (stereo not drawn) [S-(+)-Ibuprofen]	
	37	Cc1c(C)c2c(c(C)c1O)CC[C@@](C)(CCC[C@H](C)CCC[C@H](C)CCCC(C)C)O2 [Vitamin E, α-tocopherol]	maximum w/w loading capacity [1]: 41%; pore volume available occupied by the drug [1]: 88%
	36	Vitamin K	maximum w/w loading capacity [1]: 42%; pore volume available occupied by the drug [1]: 80%
